Molecules are shown by their SMILES.

For series [1], the system named is different types of solid tumours. The series is described as follows: Viability of different types of solid tumour cell lines. The note with it: HCC1954, A375P, HCT116, HT1080, pancreatic cancer lines 185 and 354. In kind it is cell-based. An excerpt:
We studied the effect of I3C alone or in combination with different drugs commonly used in the clinic for the targeted treatment of solid tumours of various origins. We used the ductal breast cancer line HCC1954 and the drug Lapatinib, the melanoma line A375P and the drug Vemurafenib, the colorectal cancer line HCT116 and the drug 5-fluorouracil, the sarcoma line HT1080 and the experimental drug ADC, and two primary pancreatic cancer lines 185 and 354 and the drug Abraxane. Results obtained (Fig. 11) shown that I3C has no effect on different types of solid tumours.

For series [2] the following is noted: in blood; cited from earlier work.

As for `OCc1c[nH]c2ccccc12` [I3C, (1H-indol-3-yl)methanol], in series [1], the “effect on solid tumours (viability)” value is on record as “no effect”. In addition, in series [2], the bioavailability was 22 µM.

The values are drawn from EP4309654A1, “INDOLE-3-CARBINOL IN COMBINATION WITH IBRUTINIB FOR THE TREATMENT OF B LYMPHOID NEOPLASMS” (Consejo Superior de Investigaciones Científicas (CSIC), priority 2022, dated 2024).
